From article PMC7395068, “The evolution of strategies to minimise the risk of human drug-induced liver injury (DILI) in drug discovery and development” (Archives of Toxicology, 2020)
Where two headings read alike, the source gives them in different places.

Key:
hLiMTs [1] = conditions: cited from earlier work
HepG2 = tested on: HepG2; set-up: method as in Albrecht 2019; conditions: In vitro Assay; ref Albrecht 2019; cited from earlier work
[2] = tested on: HepG2 cells, primary human hepatocytes; conditions: In vitro Assay; ref Garside 2014; cited from earlier work
HepG2 cells = conditions: cited from earlier work
[3] = tested on: primary human hepatocytes, NIH3T3 fibroblasts, BSEP, CYP3A4; conditions: cited from earlier work
[4] = cited from earlier work
[5] = tested on: isolated mouse liver mitochondria; conditions: In vitro Assay; ref Porceddu 2012; cited from earlier work
[6] = tested on: THLE-Null and THLE-3A4 cells; conditions: In vitro Assay; ref Gustafsson 2014; cited from earlier work
[7] = tested on: THLE or HepG2 cells, isolated mitochondria, BSEP; conditions: cited from earlier work
[8] = tested on: HepG2 C3A spheroid, BSEP, Glu/Gal in HepG2 cells, bioactivation; conditions: cited from earlier work
hLiMTs [9] = experiment: Combined HCI (HCS) and cellular ATP 3D assay in hLiMTs; conditions: for AC50 / minimal effective concentration: Homo sapiens
[10] = plasma free fraction; cited from earlier work
PHH [11] = conditions: cited from earlier work
PHH spheroids = conditions: cited from earlier work
[12] = read-out: Human plasma Cmax; total plasma Cmax.tot, median of 9 literature references; cited from earlier work
[13] = Plasma free fraction (fu) and unbound Cmax (Cmax,u); format: in vitro ADME, human; conditions: unbound plasma Cmax
Experimental: The prediction of DILI severity was evaluated further using the 3D combined HCI assays using plasma-free fraction. The majority of fu values were obtained from literature, when unavailable in-house prediction was utilised. Unbound plasma Cmax concentrations (Cmax,u) were derived by multiplying total plasma Cmax with the corresponding free fraction (fu) for each compound.

[14] = cited from earlier work; remark: listed apart in the source
HepaRG spheroids = experiment: Combined HCI (HCS) and cellular ATP 3D assay in HepaRG spheroids; conditions: for AC50 / minimal effective concentration: Homo sapiens
PHH [15] = conditions: In vitro Assay; ref Albrecht 2019; cited from earlier work
rBsep = conditions: In vitro Assay; ref Dawson 2012; cited from earlier work
[16] = ref Chen 2011; cited from earlier work
[17] = In vitro Assay, ref Proctor 2017
[18] = In vitro Assay, ref Persson 2013
[19] = In vitro Assay, ref Schadt 2015
[20] = Modeled in vitro assays (cytotoxicity, mitochondrial dysfunction, BSEP), ref Aleo et al. 2019
[21] = Microtissue model structural based (HCI), combined HCS and ATP, MEC < 25 × Cmax.tot cut-off

In the case of Cc1ccc(C(=O)c2cc(O)c(O)c([N+](=O)[O-])c2)cc1 [tolcapone, reference compound], the “hLiMTs ATP <100uM” value (hLiMTs [1]; [17]) is listed as “+VE (IC50 threshold of 100 µM)”, the “hLiMTs/100xCmax, Proctor (2017)” value (hLiMTs [1]; hLiMTs, ATP, IC50 < 100 × Cmax.tot, ref Proctor et al. 2017) is listed as “+VE (IC50 < 100 × Cmax.tot)” and the “hLiMTs/100uM, Proctor (2017)” value (hLiMTs [1]; hLiMTs, ATP, IC50 threshold 100 µM, ref Proctor et al. 2017) is listed as “+VE (IC50 threshold of 100 µM)”. For the same compound, the “Cytotoxicity HepG2 48 hrs” value (HepG2) was “+VE”, the “Cluster 1-6 +VE Assay” value [2] was “+VE” and the Cluser analysis (HepG2 cells; [18]) was “-VE”. The “Structural based (HCI)” value (HepG2 cells; [18]) was “+VE”, the “DILI in vitro assay prediction, Persson (2013)” value (HepG2 cells; Structural based (HCI), HepG2, ref Persson et al. 2013) was “-VE” and the “DILI in vitro assay prediction, Schadt (2015)” value ([3]; BSEP & Metabolism based, ref Schadt et al. 2015) was “+VE”. For the same compound, the “Cellular toxicity (3T3 cells)” value [3, 19] was “+VE”, the “Combined Assay” value [3, 19] was “+VE” and the “GSH adduct HML” value [3, 19] was “+VE”. The Hepatocyte cellular toxicity [3, 19] was “+VE”, the “MitoTox 3T3” value [3, 19] was “-VE” and the “TDI CYP3A4” value [3, 19] was “-VE”. The hBSEP inhibition [3, 19] was “+VE”, the “DILI severity category (Chen et al. [2016])” value ([4]; LTKB DILIrank category, ref Chen et al. 2016) was “Most” and the “DILI severity category (Chen 2016)” value ([4]; human DILI classification, LTKB DILIrank, ref Chen et al. 2016) was “Most”. For the same compound, the DILI severity category ([4]; human DILI severity, ref Chen et al.) was “Most”, the “DILI +VE (5-8), DILI -VE (-4)” value ([4]; ref Chen 2016) was “+VE” and the DILI severity category ([4]; ref Chen 2016) was “vMost-DILI-Concern”. For the same compound, the “in vitro data EC2<=1x Cmax” value [5] was “+VE”, the “in vitro data EC20<=2uM” value [5] was “-VE” and the THLE-Null [6] was “+VE”. For the same compound, the THLE-Null/3A4 [6] was “-VE”, the “Partition Hybrid HRM Score” value ([7]; In vitro Assay, ref Aleo 2019) was “+VE” and the “Ro2 Hybrid HRM Score” value ([7]; In vitro Assay, ref Aleo 2019) was “+VE”. The “Partition Hybrid HRM Score ≥4, Aleo (2019)” value [7, 20] was “+VE (Partition Hybrid HRM Score ≥4)”, the “Partition Hybrid HRM Score ≥8, Aleo (2019)” value [7, 20] was “+VE (Partition Hybrid HRM Score ≥8)” and the “Rule of Two hybrid HRM Score ≥3, Aleo (2019)” value [7, 20] was “+VE (Rule of Two hybrid HRM Score ≥3)”. For the same compound, the “Rule of Two hybrid HRM Score ≥8, Aleo (2019)” value [7, 20] was “+VE (Rule of Two hybrid HRM Score ≥8)”, the “Bayesian Machine Learning DILI prediction, Williams (2019)” value ([8]; Bayesian modeling, ref Williams et al. 2019) was “+VE” and the “Bayesian Machine Learning” value ([8]; In vitro Assay, ref Williams 2019) was “+VE”. It also gave an AC50 (hLiMTs [9]; read-out: ATP endpoint AC50) of 161 µM, a minimal effective concentration (hLiMTs [9]; read-out: ATP endpoint MEC) of 114 µM and an AC50 (hLiMTs [9]; read-out: HCS endpoint AC50) of 60.8 µM. The minimal effective concentration (hLiMTs [9]; read-out: HCS endpoint MEC) was 24.1 µM, the “DILI prediction hLiMTs (HCS-MEC)” value (hLiMTs [9]; [21]) was “+VE (MEC < 25 × Cmax.tot cut-off)” and the “hLiMTs <25x Avg Cmax ATP” value (hLiMTs [9]; hLiMTs, ATP endpoint, cut-off <25x Avg Cmax) was “+ve”. For the same compound, the “hLiMTs <100x Avg Cmaxu ATP” value (hLiMTs [9]; hLiMTs, ATP endpoint, cut-off <100x Avg Cmaxu) was “-ve”, the “hLiMTs <25x Avg Cmax HCS” value (hLiMTs [9]; hLiMTs, HCS endpoints, cut-off <25x Avg Cmax) was “+ve” and the “hLiMTs <100x Avg Cmaxu HCS” value (hLiMTs [9]; hLiMTs, HCS endpoints, cut-off <100x Avg Cmaxu) was “-ve”. The “hLiMTs <25x Avg Cmax All” value (hLiMTs [9]; hLiMTs, all endpoints (ATP and HCS), cut-off <25x Avg Cmax) was “+ve”, the “hLiMTs Cmax max All” value (hLiMTs [9]; hLiMTs, all endpoints, Cmax max used) was “+ve” and the “hLiMTs Cmax min All” value (hLiMTs [9]; hLiMTs, all endpoints, Cmax min used) was “+ve”. For the same compound, the “hLiMTs <10 uM All” value (hLiMTs [9]; hLiMTs, all endpoints, cut-off <10 uM) was “-ve”, the “hLiMTs <100x Avg Cmaxu All” value (hLiMTs [9]; hLiMTs, all endpoints, cut-off <100x Avg Cmaxu) was “-ve” and the fu [10] was 0.001. For the same compound, the “PHH/100xCmax, Proctor (2017)” value (PHH [11]; 2D PHH, ATP, IC50 < 100 × Cmax.tot, ref Proctor et al. 2017) was “+VE (IC50 < 100 × Cmax.tot)”, the “PHH/100uM, Proctor (2017)” value (PHH [11]; 2D PHH, ATP, IC50 threshold 100 µM, ref Proctor et al. 2017) was “-VE” and the “PHH ATP <100uM” value (PHH [11]; [17]) was “+VE (IC50 threshold of 100 µM)”. For the same compound, the “hLiMTs ATP <20 x Cmax” value (PHH spheroids; In vitro Assay, ref Vorrink 2018) was “+VE (IC20 < 20 × Cmax.tot cut-off)”, the “DILI in vitro assay prediction, Vorrink (2018)” value (PHH spheroids; PHH spheroids, ATP, 14 days, IC20 < 20 × Cmax.tot, ref Vorrink et al. 2018) was “+VE (IC20 < 20 × Cmax.tot cut-off)” and the Cmax [12] was 47.6 µM. For the same compound, the “Human plasma Cmax,u” value [13] was 0.048 µM, the “Assigned DILI category” value ([14]; Chen et al. 2016 or literature alignment, ref Chen et al. 2016) was 3 and the “In vivo DILI” value ([14]; ref Albrecht 2019) was “+VE”. For the same compound, the “In vivo DILI” value ([14]; ref Aleo 2019) was “+VE”, the “In vivo DILI” value ([14]; ref Dawson 2012) was “+VE” and the “In vivo DILI” value ([14]; ref Garside 2014) was “+VE”. For the same compound, the “In vivo DILI” value ([14]; ref Gustafsson 2014) was “+VE”, the “In vivo DILI” value ([14]; ref Persson 2013) was “+VE” and the “In vivo DILI” value ([14]; ref Porceddu 2012) was “+VE”. For the same compound, the “In vivo DILI” value ([14]; ref Proctor 2017) was “+VE”, the “In vivo DILI” value ([14]; ref Schadt 2015) was “+VE” and the “In vivo DILI” value ([14]; ref Vorrink 2018) was “+VE”. For the same compound, the “In vivo DILI” value ([14]; ref Williams 2019) was “+VE”, the “HepaRG <25x Avg Cmax ATP” value (HepaRG spheroids; HepaRG, ATP endpoint, cut-off <25x Avg Cmax) was “+ve” and the “HepaRG <100x Avg Cmaxu ATP” value (HepaRG spheroids; HepaRG, ATP endpoint, cut-off <100x Avg Cmaxu) was “-ve”. The “HepaRG <25x Avg Cmax HCS” value (HepaRG spheroids; HepaRG, HCS endpoints, cut-off <25x Avg Cmax) was “+ve”, the “HepaRG <100x Avg Cmaxu HCS” value (HepaRG spheroids; HepaRG, HCS endpoints, cut-off <100x Avg Cmaxu) was “-ve” and the “HepaRG <25x Avg Cmax All” value (HepaRG spheroids; HepaRG, all endpoints (ATP and HCS), cut-off <25x Avg Cmax) was “+ve”. For the same compound, the “HepaRG Cmax max All” value (HepaRG spheroids; HepaRG, all endpoints, Cmax max used) was “+ve”, the “HepaRG Cmax min All” value (HepaRG spheroids; HepaRG, all endpoints, Cmax min used) was “+ve” and the “HepaRG <10 uM All” value (HepaRG spheroids; HepaRG, all endpoints, cut-off <10 uM) was “-ve”. The “HepaRG <100x Avg Cmaxu All” value (HepaRG spheroids; HepaRG, all endpoints, cut-off <100x Avg Cmaxu) was “-ve”, the AC50 (HepaRG spheroids; HepaRG, read-out: ATP endpoint AC50) was 35.3 µM and the minimal effective concentration (HepaRG spheroids; HepaRG, read-out: ATP endpoint MEC) was 20.5 µM. For the same compound, the AC50 (HepaRG spheroids; HepaRG, read-out: HCS endpoint AC50) was 36.1 µM, the minimal effective concentration (HepaRG spheroids; HepaRG, read-out: HCS endpoint MEC) was 21 µM and the “DILI prediction HepaRG spheroids (HCS-MEC)” value (HepaRG spheroids; [21]) was “+VE (MEC < 25 × Cmax.tot cut-off)”. For the same compound, the “Cytotoxicity PHH 48 hrs” value (PHH [15]) was “+VE”, the “Inhibition of rBsep cutoff<1& cmax u>.2” value (rBsep) was “+VE” and the “Inhibition of rBsep cutoff<3” value (rBsep) was “+VE”. For the same compound, the “DILI Score (FDA) (1-8)” value [16] was 8.
